# Laboratory results published in US20240246984A1, “HETEROCYCLIC JAK INHIBITOR” (BEIJING INNOCARE PHARMA TECH CO., LTD., priority 2020, published 2024).
# What was measured:
# [1] = biological target: human recombinant TYK2 protein (Homo sapiens, UniProt P29597); test: TYK2 activity inhibition assay (HTRF kinase detection); assay type: biochemical; details: 11.25 μM ATP substrate solution
# Description: The effect of the compounds of the present invention on the activity of TYK2 was assessed by using an in vitro kinase detection assay.
# The enzymatic activity of TYK2 was assessed by detecting the substrate phosphorylation level in a kinase reaction with a homogeneous time-resolved fluorescence (HTRF) kinase detection kit (Cisbio, 62TK0PEC). A reaction buffer contained an enzyme buffer (1×), 5 mM MgCl2, 1 mM DTT and 0.01% Brij35 from the kit; a human recombinant TYK2 protein (Carna Biosciences, 08-147) was diluted to a kinase reaction solution of 0.25 ng/μL with the reaction buffer; a substrate reaction solution contained 11.25 μM ATP and a biotin-labeled tyrosine kinase substrate diluted to 0.5 μM with the reaction buffer; a detection buffer contained 0.1 ng/μL Eu^3+ labeled cage antibody (Cisbio, 61T66KLB) and 25 nM streptavidin-labeled XL665 (Cisbio, 610SAXLB) in the reaction buffer; the compound was dissolved to 10 μM in DMSO, followed by a serial 4-fold dilution with DMSO to a minimum concentration of 0.061 nM. Each concentration was further diluted 40-fold with the reaction buffer. To a 384-well assay plate (Corning, 3674) were added 4 μL of the compound solutions having a series of concentrations and 2 μL of kinase reaction solutions. After being mixed evenly, the mixtures were incubated at room temperature for 15 minutes, and then 4 μL of the substrate reaction solutions were added. The reaction mixtures were incubated at room temperature for 40 minutes. Then the reaction mixtures were added with 10 μL of detection solutions, mixed evenly, and allowed to stand at room temperature for 30 minutes. An Envision plate reader (Perkin Elmer) was then used to measure the progress of the reaction at wavelengths of 620 nm and 665 nm. The signal value (absorbance at 665 nm/absorbance at 620 nm) was positively correlated with the degree of substrate phosphorylation, therefore the kinase activity of TYK2 was detected. In this assay, the group without TYK2 kinase protein was the 100% inhibition group, and the group with TYK2 kinase protein but without the test compound was the 0% inhibition group. The compound inhibition curve was plotted using XLfit software and the IC50 of its inhibition was calculated.
# [2] = biological target: human recombinant JAK2 protein (Homo sapiens, UniProt O60674); test: JAK2 activity inhibition assay (HTRF kinase detection); assay type: biochemical; details: 2.5 μM ATP substrate solution
# Description: The effect of the compounds of the present invention on the activity of JAK2 was assessed by using an in vitro kinase detection assay.
# The enzymatic activity of JAK2 was assessed by detecting the substrate phosphorylation level in a kinase reaction with a homogeneous time-resolved fluorescence (HTRF) kinase detection kit (Cisbio, 62TK0PEC). A reaction buffer contained an enzyme buffer (1×), 5 mM MgCl2, 1 mM DTT and 0.01% Brij35 from the kit; a human recombinant JAK2 protein (Carna Biosciences, 08-045) was diluted to a kinase reaction solution of 0.15 ng/μL with the reaction buffer; a substrate reaction solution contained 2.5 μM ATP and a biotin-labeled tyrosine kinase substrate diluted to 0.25 μM with the reaction buffer; a detection buffer contained 0.1 ng/μL Eu^3+ labeled cage antibody (Cisbio, 61T66KLB) and 12.5 nM streptavidin-labeled XL665 (Cisbio, 610SAXLB) in the reaction buffer; the compound was dissolved to 10 μM in DMSO, followed by a serial 4-fold dilution with DMSO to a minimum concentration of 0.061 nM. Each concentration was further diluted 40-fold with the reaction buffer. To a 384-well assay plate (Corning, 3674) were added 4 μL of the compound solutions having a series of concentrations and 2 μL of JAK2 kinase reaction solutions. After being mixed evenly, the mixtures were incubated at room temperature for 15 minutes, and then 4 μL of the substrate reaction solutions were added. The reaction mixtures were incubated at room temperature for 30 minutes. Then the reaction mixtures were added with 10 μL of detection solutions, mixed evenly, and allowed to stand at room temperature for 30 minutes. An Envision plate reader (Perkin Elmer) was then used to measure the progress of the reaction at wavelengths of 620 nm and 665 nm. The signal value (absorbance at 665 nm/absorbance at 620 nm) was positively correlated with the degree of substrate phosphorylation, therefore the kinase activity of JAK2 was detected. In this assay, the group without JAK2 kinase protein was the 100% inhibition group, and the group with JAK2 kinase protein but without the test compound was the 0% inhibition group. The compound inhibition curve was plotted using XLfit software and the IC50 of its inhibition was calculated.
# [3] = system: IL-12-induced IFN-γ secretion in NK92 cells; test: Inhibition of IL-12-induced IFN-γ secretion in NK92 cells (ELISA); assay type: cell-based; details: Homo sapiens, IL-12 stimulation, 24 hours, read-out: IC50 (NK92IL12/IFN-γ)
# Description: The effect of the compounds of the present invention on IFN-γ secretion in IL-12-induced NK92 cells was evaluated by an enzyme-linked immunosorbent assay (ELISA).
# The assay principle was generally described below: IL-12R was mainly expressed in activated T-cells, NK cells (NK92 was an NK cell line), DC cells, and B-cells. When binding to IL-12, it activated the JAK2/TYK2 signal transduction pathway within NK cells and activated T lymphocytes, thereby inducing secretion of IFN-γ.
# The compound was dissolved to 2.5 mM in DMSO, followed by a serial 4-fold dilution with DMSO to a minimum concentration of 0.31 μM. Each concentration was further diluted 50-fold with an FBS-free MEMα medium (Thermofisher. 12561-056).
# NK92 cells (Nanjing Cobioer, CBP60980) were cultured in a complete MEMα medium containing 12.5% FBS (Ausbian, VS500T), 12.5% horse serum (Thermofisher, 16050-122), 0.02 mM folic acid (Sigma, F8758), 0.2 mM inositol (Sigma, 17850), 0.55 mM β-mercaptoethanol (Thermofish, 21985-023), 200 U/mL IL-2 (R&D Systems, 202-1L), and 100 U/mL penicillin-streptomycin mixed liquor (ThermoFisher, 15140122). When covering 80-90% of the culture container surface, the cells were dispersed and plated on a 96-well plate (ThermoFisher, 167425) with 100,000 cells per well (80 μL of the complete MEMα medium without IL-2). The 96-well plate was then incubated overnight in a 37° C., 5% CO2 incubator.
# After overnight incubation, 10 μL of the compound and 10 μL of 50 ng/ml IL-12 (R &D Systems, 219-1L) were added to each well and mixed gently, and the 96-well plate was incubated in the 37° C., 5% CO2 incubator for additional 24 hours. The plate was centrifuged at 800 rpm for 10 minutes at room temperature and 50 μL of the supernatant from each well was transferred to another 96-well plate (Sigma, CLS3695) coated with anti-IFN-γ antibody. The amount of IFN-γ secretion was detected following the instruction from the Human IFN-γ DuoSet ELISA assay kit (R & D Systems, DY285B). In this assay, the group in which IL-12 and the test compound were replaced with the MEMα medium was the non-stimulated control group (100% inhibition), and the group with IL-12 and 0.2% DMSO was the stimulated control group (0% inhibition). The compound inhibition curve was plotted using XLfit software and the IC50 of its inhibition was calculated.
SMILES,IC50 [1] [nM],IC50 [2] [nM],IC50 [3] [nM]
"Cn1cc(Nc2nc(-c3c(F)cccc3F)n3cc[nH]c(=O)c23)cn1 [Compound 4, 3-(2,6-difluorophenyl)-1-((1-methyl-1H-pyrazol-4-yl)amino)imidazo[1,5-a]pyrazin-8(7H)-one]",0.8,2,175
"CS(=O)(=O)c1ccc(Nc2nc(-c3c(F)cccc3F)n3c2C(=O)NCC3)cc1 [Compound 12, 3-(2,6-difluorophenyl)-1-((4-(methylsulfonyl)phenyl)amino)-6,7-dihydroimidazo[1,5-a]pyrazin-8(5H)-one]",0.9,5.5,110
"O=C(c1ccc(Nc2nc(-c3c(F)cccc3Cl)n3cc[nH]c(=O)c23)cc1)N1CCOCC1 [Compound 3, 3-(2-chloro-6-fluorophenyl)-1-((4-(morpholine-4-carbonyl)phenyl)amino)imidazo[1,5-a]pyrazin-8(7H)-one]",0.1,0.4,66
"CS(=O)(=O)c1ccc(Nc2nc(-c3c(F)cccc3F)n3cc[nH]c(=O)c23)cc1 [Compound 11, 3-(2,6-difluorophenyl)-1-((4-(methylsulfonyl)phenyl)amino)imidazo[1,5-a]pyrazin-8(7H)-one]",4,1.4,242
"O=c1[nH]ccn2c(-c3c(F)cccc3F)nc(Nc3ccc(N4CCOCC4)cc3)c12 [Compound 6, 3-(2,6-difluorophenyl)-1-((4-morpholinophenyl)amino)imidazo[1,5-a]pyrazin-8(7H)-one]",0.3,5.3,198
"O=C1NCCn2c(-c3c(F)cccc3F)nc(Nc3ccc(CC(=O)N4CCOCC4)cc3)c21 [Compound 16, 3-(2,6-difluorophenyl)-1-((4-(2-morpholino-2-oxoethyl)phenyl)amino)-6,7-dihydroimidazo[1,5-a]pyrazin-8(5H)-one]",2,4.9,1440
"CC(C)(C(=O)N1CCOCC1)c1ccc(Nc2nc(-c3c(F)cccc3F)n3cc[nH]c(=O)c23)cc1 [Compound 17, 3-(2,6-difluorophenyl)-1-((4-(2-methyl-1-morpholino-1-oxopropan-2-yl)phenyl)amino)imidazo[1,5-a]pyrazin-8(7H)-one]",0.1,0.3,520
"CC(C)(C(=O)N1CCC1)c1ccc(Nc2nc(-c3c(F)cccc3F)n3c2C(=O)NCC3)cc1 [Compound 13, 1-((4-(1-(azetidin-1-yl)-2-methyl-1-oxopropan-2-yl)phenyl)amino)-3-(2,6-difluorophenyl)-6,7-dihydroimidazo[1,5-a]pyrazin-8(5H)-one]",0.3,2.2,1060

# More lines, now with the values ahead:
IC50 [1] [nM],IC50 [2] [nM],IC50 [3] [nM],SMILES
0.4,0.6,191,"CN1CCN(C(=O)C(C)(C)c2ccc(Nc3nc(-c4c(F)cccc4F)n4cc[nH]c(=O)c34)cc2)CC1 [Compound 35, 3-(2,6-difluorophenyl)-1-((4-(2-methyl-1-(4-methylpiperazin-1-yl)-1-oxopropan-2-yl)phenyl)amino)imidazo[1,5-a]pyrazin-8(7H)-one]"
0.5,4.5,4100,"O=C(O)c1ccc(Nc2nc(-c3c(F)cccc3F)n3cc[nH]c(=O)c23)cc1 [Compound 39, 4-((3-(2,6-difluorophenyl)-8-oxo-7,8-dihydroimidazo[1,5-a]pyrazin-1-yl)amino)benzoic acid]"
0.4,0.5,2850,"CC(C)(C(=O)N1CCNCC1)c1ccc(Nc2nc(-c3c(F)cccc3Cl)n3cc[nH]c(=O)c23)cc1 [Compound 38, 3-(2-chloro-6-fluorophenyl)-1-((4-(2-methyl-1-oxo-1-(piperazin-1-yl)propan-2-yl)phenyl)amino)imidazo[1,5-a]pyrazin-8(7H)-one]"
0.4,2.8,406,"CC(C)(C(=O)O)c1ccc(Nc2nc(-c3c(F)cccc3F)n3cc[nH]c(=O)c23)cc1 [Compound 40, 2-(4-((3-(2,6-difluorophenyl)-8-oxo-7,8-dihydroimidazo[1,5-a]pyrazin-1-yl)amino)phenyl)-2-methylpropanoic acid]"
0.3,2.2,1410,"CC(C)(C(=O)N1CCOCC1)c1ccc(Nc2nc(-c3c(F)cccc3F)n3c2C(=O)NCC3)cc1 [Compound 18, 3-(2,6-difluorophenyl)-1-((4-(2-methyl-1-morpholino-1-oxopropan-2-yl)phenyl)amino)-6,7-dihydroimidazo[1,5-a]pyrazin-8(5H)-one]"
0.1,0.6,425,"O=C(c1ccc(Nc2nc(-c3c(F)cccc3Cl)n3cc[nH]c(=O)c23)cc1)N1CCNCC1 [Compound 32, 3-(2-chloro-6-fluorophenyl)-1-((4-(piperazine-1-carbonyl)phenyl)amino)imidazo[1,5-a]pyrazin-8(7H)-one]"
0.1,0.4,66,"CC(C)(C(N)=O)c1ccc(Nc2nc(-c3c(F)cccc3Cl)n3cc[nH]c(=O)c23)cc1 [Compound 33, 2-(4-((3-(2-chloro-6-fluorophenyl)-8-oxo-7,8-dihydroimidazo[1,5-a]pyrazin-1-yl)amino)phenyl)-2-methylpropanamide]"
